This note sets out measurements from US20110251188A1, “ACENAPHTHO HETEROCYCLE COMPOUNDS, CYCLODEXTRIN INCLUSION COMPOUNDS AND COMPLEXES, AND USES IN THE MANUFACTURES OF BH3 PROTEIN ANALOGUE, BCL-2 FAMILY PROTEIN INHIBITORS THEREOF” (DALIAN UNIVERSITY OF TECHNOLOGY, priority 2008, published 2011).

SMILES strings stand for the structures.

Assay [1] has as its system hepatoma carcinoma cells H22. In words: in vivo tumor model, subcutaneous H22 tumor in Kunming mice. The note with it: experimental group 2: peritoneal injection of DMSO solution, 0.3 mg/kg BW every other day, 10 days; tumor volume on the fortieth day. The protocol:
The Kunming mice (in China) were randomly divided into groups, with 10 mice in each group. The cultivated hepatoma carcinoma cells H22 were inoculated subcutaneously in the oxter of the mice with 200 μL/mouse. After bearing the cancer cells for five days, the subcutaneous tumor was formed. Then the compound 3-thiomorpholinyl-8-oxo-8H-acenaphtho[1,2-b]pyrrole-9-carbonitrile and γ-cyclodextrin inclusion compound thereof were given by peritoneal injection, and the compound to be detected included by γ-cyclodextrin was given by oral administration. The detection conditions comprise:
Blank control group: the mice were not treated in any manner after the bearing cancer;
Control group (1): the mice were given a peritoneal injection of DMSO solution every other day after the bearing cancer, 10 days in total;
Control group (2): the mice were given a peritoneal injection of cyclodextrin solution every other day after the bearing cancer, 10 days in total;
Experimental group (1): the mice were given a peritoneal injection of DMSO solution equivalent to 0.03 mg/kg BW compound every other day after the bearing cancer, 10 days in total;
Experimental group (2): the mice were given a peritoneal injection of DMSO solution equivalent to 0.3 mg/kg BW compound every other day after the bearing cancer, 10 days in total;
Experimental group (3): the mice were given a peritoneal injection of inclusion compound water solution equivalent to 0.3 mg/kg BW compound every other day after the bearing cancer, 10 days in total;
Experimental group (4): the mice were given an intragastric administration of inclusion compounds water solution equivalent to 0.3 mg/kg BW compound every other day after the bearing cancer, 10 days in total;
During the experimental period, the length-diameter (a) and short diameter (b), which was perpendicular to the length-diameter, of the tumor were detected twice every week. The gross tumor volume was determined according to the formula: ½ab^2. The survival time of the animal was observed. The tumor inhibition rate was calculated by the tumor volume on the fortieth day.

In assay [2] the target is T1, GST-Bcl-2 protein (Homo sapiens, UniProt P10415).
T1 construct: fused on or other part: GST tag on Bcl-2
In words: fluorescence polarization assay, competitive binding against FAM-Bid peptide. The note with it: Table 3; FAM-Bid competition; table does not say whether Bcl-2 or Mcl-1; read-out: Binding constant. As for the experimental part: A Bid BH3 peptide (amino acids: 79-99: […]) having 21 amino acids was synthesized and marked with 6-carboxyfluorescein N-succinimidyl ester (FAM) as fluorescent tag (FAM-Bid) at the N-terminal. The reaction system used in the competitive binding experiment was GST-Bcl-2 protein (40 nM) or Mcl-1 protein, which was dissolved in the reaction buffer (100 mM K3PO4, pH 7.5; 100 μg/ml bovine γ albumin; 0.02% sodium azide) together with FAM-Bid polypeptide (5 nM). In a 96-well plate, 100 μL of the reaction system was added into each well. Then 1 μL different concentration of 3-thiomorpholinyl-8-oxo-8H-acenaphtho[1,2-b]pyrrole-9-carbonitrile mother solution to be detected dissolved in DMSO was added thereinto until the final concentration met the experimental design requirements. Meanwhile, two control groups were established, one with the reaction system only contains Bcl-2 or Mcl-1 and FAM-Bid (equivalent to 0% inhibition rate), the other with the reaction system only containing FAM-Bid peptide. After 4 hours of incubation, the 96-well plate was detected by enzyme-labelled meter. The fluorescent polarization value (mP) was tested at […]. Ki value was deduced according to calculation formula. The competitive binding constant between the compound and Bcl-2 was 310 nM.
Background: In fluorescence polarisation assays a small probe gives low polarisation when free and higher when bound to something large.

T1 sequence (P10415 whole entry, the tested form may be a part): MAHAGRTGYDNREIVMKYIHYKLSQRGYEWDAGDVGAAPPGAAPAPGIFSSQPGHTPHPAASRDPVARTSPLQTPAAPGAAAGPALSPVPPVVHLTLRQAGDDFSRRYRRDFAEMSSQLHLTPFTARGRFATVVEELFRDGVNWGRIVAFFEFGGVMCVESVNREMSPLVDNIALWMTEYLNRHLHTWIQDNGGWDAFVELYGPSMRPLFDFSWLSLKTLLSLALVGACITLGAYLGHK

With `N#CC1=C2C(=NC1=O)c1c(Sc3ccc(N)cc3)ccc3cccc2c13` [6-(4-aminophenylthio)-8-oxo-8H-acenaphtho[1,2-b]pyrrole-9-carbonitrile], in assay [1], the tumor inhibition rate result is “about 30%”. For the same compound, the Ki in assay [2] turned out to be 20 nM.
On the same counts, the results for `N#CC1=C2C(=NC1=O)c1c(Sc3ccc(Br)cc3)ccc3c(Sc4ccc(Br)cc4)ccc2c13` [3,6-di(4-bromophenylthio)-8-oxo-8H-acenaphtho[1,2-b]pyrrole-9-carbonitrile] are “about 78%” and 5 nM.
Taken in the same sequence, the figures for `N#CC1=C2C(=NC1=O)c1cccc3c(Sc4ccc(Br)cc4)ccc2c13` [3-(4-bromophenylthio)-8-oxo-8H-acenaphtho[1,2-b]pyrrole-9-carbonitrile] were “about 40%” and 17 nM.
On the same counts, the results for `N#CC1=C2C(=NC1=O)c1cccc3cccc2c13` [8-oxo-8H-acenaphtho[1,2-b]pyrrole-9-carbonitrile] are “about 60%” and 0.3 nM.
On to `N#CC1=C2C(=NC1=O)c1c(Sc3ccc(N)cc3)ccc3c(Sc4ccc(N)cc4)ccc2c13` [3,6-di(4-aminophenylthio)-8-oxo-8 H-acenaphtho[1,2-b]pyrrole-9-carbonitrile], for which the tumor inhibition rate entry in assay [1] is “about 50%”. Further, the Ki in assay [2] turned out to be 7 nM.
